Data as given in US8324209B2, “Pesticidal compositions” (Dow AgroSciences, LLC, priority 2008, dated 2012).

Test system: cotton aphid (Aphis gossypii)
Experiment: Insecticidal test for cotton aphid in foliar spray assay on squash
Assay type: in vivo
Details: 200 ppm foliar spray on squash cotyledons; live aphids counted after 3 days; Corrected % Control (Abbott's formula); 4 replications
Protocol: The compounds identified in the foregoing examples were tested against cotton aphid using procedures described hereinafter. Insecticidal Test for Cotton Aphid (Aphis gossypii) in Foliar Spray Assay Squash seedlings with fully expanded cotyledon leaves were trimmed to one cotyledon per plant and infested with cotton aphid (wingless adults and nymphs) 1 day prior to chemical application. Each plant was examined before chemical application to ensure uniform infestation (ca. 30-70 aphids per plant). Compounds (2 mg) were dissolved in 2 mL of acetone/methanol (1:1) solvent, forming stock solutions of 1000 ppm. The stock solutions were diluted 5× with 0.025% Tween 20 in H2O to obtain a solution at 200 ppm. A hand-held Devilbiss aspirator type sprayer was used to apply the spray solutions until runoff to both sides of the squash cotyledon leaves. Four plants (4 replications) were used for each compound. Reference plants (solvent check) were sprayed with the diluent only. Treated plants were held in a holding room for 3 days at approximately 23° C. and 40% relative humidity (RH) before the number of live aphids on each plant was recorded. Insecticidal activity was measured by Corrected % Control using Abbott's correction formula and presented in Table 1-Activity: Corrected % Control=100*(X−Y)/X • where X=No. of live aphids on solvent check plants • Y=No. of live aphids on treated plants Results are shown in Table 1.

Structure (SMILES)	% Control at ppm, against cotton aphid on squash (foliar spray)
CC(c1cnc(Cl)nc1)S(C)(=O)=NC#N (stereo not drawn) [Compound 1, [1-(2-chloropyrimidin-5-yl)ethyl](methyl)oxido-λ^4-sulfanylidenecyanamide]	A (80-100)
CS(=O)(Cc1ccc(Cl)nn1)=NC#N (stereo not drawn) [Compound 2, [(3-chloropyridazin-6-yl)methyl](methyl)oxido-λ^4-sulfanylidenecyanamide]	A (80-100)
CC(c1cnc(C(F)(F)F)nc1)S(C)(=O)=NC#N (stereo not drawn) [Compound 3, methyl(oxido){1-[2-(trifluoromethyl)pyrimidin-5-yl]ethyl}-λ^4-sulfanylidenecyanamide]	A (80-100)
